Broadly, the IC50 is the concentration at which inhibition is half-maximal. A higher IC50 goes with weaker potency. One may read the melting point as the temperature, or range, at which the solid turns liquid. By GI50 is commonly meant the concentration at which growth is held to half of that of the control.

This note sets out measurements from PMC6274539, “Photoactivatable Caged Prodrugs of VEGFR-2 Kinase Inhibitors” (Molecules, 2016).

“Also recorded” adds a separate entry of the source. Where two headings read alike, the source gives them in different places.

For series [1], the system named is PC-3 cells. The experiment in a line: cellular uptake by fluorescence microscopy (cell staining). Type of series: cell-based. The conditions noted are these: live PC-3 cells, 10 µM, 30 min, autofluorescence. Here is the method: Next, we investigated the cellular bioavailability of the caged prodrugs. For this purpose, we used the autofluorescence of the carbazole 3 and its caged derivative 5. The emission spectra of both compounds are shown in the Supplementary Figure S6. The fluorescence microscopy was used to explore the uptake of the compounds into the cells. Live PC-3 cells were stained with 10 µM solutions of 3 or 5, and then fixed with formalin. Subsequently, the cell nuclei were counterstained with 1 µg/mL DAPI.
PC-3 cells were stained with the carbazole 3 and its caged derivative 5. For this purpose, the cells were seeded to give 15,000 cells in 50 µL per well into 96-well half area microplate (Ref.: 675986, Greiner bio-one, Kremsmünster, Austria). The plate was incubated for 48 h at 37 °C in a humidified atmosphere with 5% CO2. Compounds 3 and 5 were dissolved in DMEM:Hams F12 (1:1) medium with 5% FCS and added to the cells to give the endconcentration of 10 µM, respectively. The cells were incubated with the compounds for 30 min at 37 °C. After that, the cells were washed twice with PBS and fixed with 3.3% formalin for 15 min. […] After 30 min incubation at 37 °C, the cells were washed with PBS and the fluorescence images were taken at the ImageXpress® Micro XL (Molecular Devices, Sunnyvale CA, USA). […]

In another series the target is T1, VEGFR-2 (Homo sapiens, UniProt P35968).
T1 construct: determined using VEGFR-2 protein kinase by a radiometric ^33PanQinase® assay; purchased ProQinase (Freiburg, Germany)
T1 sequence (P35968 20-1356): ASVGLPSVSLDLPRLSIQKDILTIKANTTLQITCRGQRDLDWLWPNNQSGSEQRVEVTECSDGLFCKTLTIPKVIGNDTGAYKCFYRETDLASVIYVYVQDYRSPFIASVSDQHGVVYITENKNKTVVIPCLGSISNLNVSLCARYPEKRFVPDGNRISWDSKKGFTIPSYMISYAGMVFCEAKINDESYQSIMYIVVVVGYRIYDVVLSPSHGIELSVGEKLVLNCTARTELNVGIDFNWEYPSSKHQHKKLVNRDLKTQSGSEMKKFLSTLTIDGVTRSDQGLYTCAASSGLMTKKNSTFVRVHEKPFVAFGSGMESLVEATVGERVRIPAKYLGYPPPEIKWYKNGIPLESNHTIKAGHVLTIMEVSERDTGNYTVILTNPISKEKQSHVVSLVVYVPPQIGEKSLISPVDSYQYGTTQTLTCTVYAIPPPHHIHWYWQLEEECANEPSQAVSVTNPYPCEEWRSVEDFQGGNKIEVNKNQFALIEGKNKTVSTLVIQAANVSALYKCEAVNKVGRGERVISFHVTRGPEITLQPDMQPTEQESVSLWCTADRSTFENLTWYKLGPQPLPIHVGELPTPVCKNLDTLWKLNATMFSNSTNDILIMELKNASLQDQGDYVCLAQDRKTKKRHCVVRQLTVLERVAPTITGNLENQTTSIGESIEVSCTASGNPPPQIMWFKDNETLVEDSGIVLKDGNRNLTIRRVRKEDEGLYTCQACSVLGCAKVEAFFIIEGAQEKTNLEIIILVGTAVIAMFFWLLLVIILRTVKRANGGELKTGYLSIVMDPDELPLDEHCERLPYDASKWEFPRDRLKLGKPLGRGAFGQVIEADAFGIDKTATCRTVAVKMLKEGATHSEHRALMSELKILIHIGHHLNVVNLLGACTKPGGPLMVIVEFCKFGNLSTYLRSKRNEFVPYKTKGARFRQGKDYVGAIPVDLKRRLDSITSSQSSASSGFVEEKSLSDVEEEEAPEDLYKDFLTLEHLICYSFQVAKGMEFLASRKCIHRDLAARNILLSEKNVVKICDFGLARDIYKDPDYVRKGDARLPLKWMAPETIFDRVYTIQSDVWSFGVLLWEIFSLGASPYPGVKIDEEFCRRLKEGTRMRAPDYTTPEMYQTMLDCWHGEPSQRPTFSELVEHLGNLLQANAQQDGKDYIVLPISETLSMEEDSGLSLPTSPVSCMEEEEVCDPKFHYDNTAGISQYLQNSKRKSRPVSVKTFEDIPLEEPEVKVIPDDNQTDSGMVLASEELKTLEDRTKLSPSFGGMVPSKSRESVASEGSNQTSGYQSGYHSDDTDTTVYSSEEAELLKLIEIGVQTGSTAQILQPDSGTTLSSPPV
Nature of the series: radiometric 33PanQinase VEGFR-2 kinase assay (ProQinase). Type of series: biochemical. To be noted: 10 semi-log concentrations, single samples, 1% DMSO. Here is the method:
As predicted by molecular modeling, insertion of the protecting group DMNB should diminish the inhibitory activity both of the maleimide 1 and the carbazole 3. […] The IC50 values towards VEGFR-2 were determined (Table 1).
The VEGFR-2 IC50 profile for 1, 3, 4 and 5 was determined using VEGFR-2 protein kinase by a radiometric ^33PanQinase® assay. […] Prior to testing, the compounds were dissolved to prepare 1 × 10^−2 M stock solutions in 100% DMSO. The final DMSO concentration in the reaction cocktails was 1% in all cases. Analyses were performed by ProQinase (Freiburg, Germany).

The nature of series [2]: photoactivation (uncaging) at 365 nm in DMSO (HPLC, LC-MS). Type of series: physicochemical. To be noted: 1 mM in DMSO, 5.4 W, up to 10 min. From the text: A further prerequisite for an application of caged prodrugs is a rapid and quantitative release of active parent compounds by irradiation. To examine this, we investigated the uncaging of 4 and 5 induced by irradiation at 365 nm with 5.4 W (Figure 5). […] Initially released maleimide 1 is converted to the intermediate 2 by proceeding irradiation, which is in line to the previously described instability of 1, (compare Figure 4a). […] Due to UV stability of 3 no other by-products could be detected.
After 0.25, 0.5, 0.75, 1, 2, 3, 5 and 10 min of irradiation samples were taken. Aliquots were diluted 1:5 with methanol and subsequently analyzed by HPLC. Additional to retention time LC-MS was used to proof identity.

Series [3] concerns PC-3 cells. Nature of the series: cellular growth (proliferation) assay, resazurin. Type of series: cell-based. To be noted: for TGI (total growth inhibition) mark: without UV irradiation; for antiproliferative effect after UV irradiation: 365 nm, 1.1 kW/m^2, 48 h. Here is the method: Growth assays on VEGFR-2 dependent PC-3 cells were performed.
PC-3 cells were purchased from CLS Cell Lines Service GmbH (Eppelheim, Germany). The cells were grown in DMEM:Hams F12 (1:1) medium with 5% FCS. PC-3 cells were incubated in a 5% CO2 humidified atmosphere at 37 °C.
The cells were grown in cell flasks until approximately 90% confluence and then seeded to give 13000 cells in 100 μL per well into 96-well CulturePlates™ (Perkin Elmer). In addition to the test plates, one plate was prepared for reference measurement at day zero. All plates were incubated for 24 h at 37 °C in a humidified atmosphere with 5% CO2. Compounds 1, 3, 4, and 5 were dissolved in 100% DMSO (v/v) and added to the test plates. The final DMSO concentration in the assay was 0.5% (v/v). Viability of the cells in the day zero control plates were determined on the same day without adding any compounds. For viability measurement the resazurin assay was used. The shift in the fluorescence signal was measured at the LS55 Fluorescence spectrometer (Perkin Elmer). For the photoactivation experiments the test plates were irradiated at 365 nm for 5 min (LED source: 8× Nichia NCSU033B, Sahlmann Photochemical Solutions, 50%, 1.1 kW/m^2). Test plates were incubated for further 48 h and cell viability was defined as described above. Measured raw data was converted into percent of cell growth by using the high control (0.5% DMSO (v/v) without compound) and the day zero control. For dose-response studies, 11 different concentrations of compounds were tested in duplicates. IC50 values were calculated using the 4-parameter logarithmic fit option of GraphPad Prism 5.
(Resazurin is reduced to fluorescent resorufin, in cell work by metabolically active cells.)

[4] abbreviates: Homo sapiens, PC-3, light or radiation study, irradiated at 365 nm, 5 min, 1.1 kW/m^2, cell growth after 48 h, read-out: GI50 after Irradiation.
[5] abbreviates: irradiated at 365 nm, 5 min, 1.1 kW/m^2, cell growth after 48 h, read-out: GI50 after Irradiation.

On to `COc1cc(CN2C(=O)c3c(c4c5ccccc5[nH]c4c4c(OC)c(OC)c(OC)cc34)C2=O)c([N+](=O)[O-])cc1OC` [Compound 5, 2-(4,5-Dimethoxy-2-nitrobenzyl)-5,6,7-trimethoxybenzo[a]pyrrolo[3,4-c]carbazole-1,3(2H,8H)-dione], for which the melting point came to 283 °C. In addition, the cellular uptake entry in the series with PC-3 cells [1] is on record as “taken up into the cells, but not within the cell nuclei”. This compound also returned a half-inhibitory concentration (IC50) on VEGFR-2 of 44.8 µM. In series [2], the “photoinduced release of parent compound (uncaging)” value is “rapidly released”. Besides, the GI50 with PC-3 cells [3] (Homo sapiens, PC-3, light or radiation study, 48 h, no UV irradiation, cell growth after 48 h, read-out: GI50 without Irradiation) amounted to 34600 nM. Further, the concentration for 50% growth inhibition (GI50) in the series on PC-3 cells [3] (setting [4]) turned out to be 220 nM. In addition, the GI50 in the series with PC-3 cells [3] (setting [5]) came out at 200 nM. Also, in the series with PC-3 cells [3] (48 h), the “TGI (total growth inhibition) mark” value is “not reached even at high concentrations”.
As for `C[C@H](NC(=O)OC(C)(C)C)C(=O)O` [Boc-Ala, reference compound], the “antiproliferative effect after UV irradiation” value in the series on PC-3 cells [3] (5 min) is “does not have any effect on cellular growth”. Further, the “antiproliferative effect without UV irradiation” value in the series with PC-3 cells [3] (no UV irradiation, 48 h) is “do not show any; also recorded: did not show any antiproliferative effects”.
As for `COc1cc(COC(=O)[C@H](C)NC(=O)OC(C)(C)C)c([N+](=O)[O-])cc1OC` [DMNB-Boc-Ala, reference compound], the “antiproliferative effect after UV irradiation” value in the series on PC-3 cells [3] (5 min) was “distinct antiproliferative activity”. In the series with PC-3 cells [3] (setting [5]), the GI50 stood at 50300 nM. For the same compound, the “antiproliferative effect without UV irradiation” value in the series with PC-3 cells [3] (no UV irradiation, 48 h) was “do not show any; also recorded: did not show any antiproliferative effects”.
With `COc1cc(CN2C(=O)C(c3cc(OC)c(OC)c(OC)c3)=C(c3c[nH]c4ccccc34)C2=O)c([N+](=O)[O-])cc1OC` [Compound 4, 1-(4,5-Dimethoxy-2-nitrobenzyl)-3-(1H-indol-3-yl)-4-(3,4,5-trimethoxyphenyl)-1H-pyrrole-2,5-dione], the melting point came to 205 °C. For the same compound, inhibition against VEGFR-2 was half-maximal at 4.59 µM (IC50). In series [2], the “photoinduced release of parent compound (uncaging)” value was “cleavage of the DMNB PPG”. Also, the 50% growth inhibitory concentration (GI50) in the series on PC-3 cells [3] (setting [4]) was 100 nM. For the same compound, in the series with PC-3 cells [3] (after irradiation, PPG from DMNB-Boc-Ala), the “concentration at which the cleaved PPG shows toxicity relative to efficacious concentration of the irradiated compound” value is “approximately 500 fold”. Further, the “antiproliferative effect without UV irradiation” value in the series on PC-3 cells [3] (no UV irradiation, 48 h) is “do not show any; also recorded: very marginal antiproliferative activity”. In addition, the “GI50 without Irradiation” value in the series on PC-3 cells [3] (no UV irradiation, cell growth after 48 h) is on record as “not reached”. Moreover, the “TGI (total growth inhibition) mark” value in the series with PC-3 cells [3] (48 h) is recorded as “not reached even at high concentrations”.
